Assay results as given in patent US20130150399A1, “INHIBITORS OF THE UNFOLDED PROTEIN RESPONSE AND METHODS FOR THEIR USE” (The Board of Trustees of the Leland Stanford Junior …, priority 2006, published 2013).

How the values were obtained:
XBP1-luciferase reporter = experiment: XBP-luciferase reporter high throughput screen / IRE IC50 (tunicamycin + thapsigargin induced); type: cell-based, human; conditions: Assay IRE IC50; Conc 20 uM
Protocol: Specifically, HT1080 fibrosarcoma cells stably transfected with the unspliced XBP-1-luciferase reporter construct (3000/well) were plated onto a solid white 384 well microplate with a multidrop dispenser (40 μL per well). The plates were then placed into an automated incubator. After 24 hours of growth, a mixture of tunicamycin (1 μg/ml) and thapsigargin (100 nM) inducers were added, and candidate compounds were then added to the plates. After 24 hours, luciferase reagent (10 μl) was added to each well and the plates were read in a Molecular Devices Analyst GT (0.2 second read per well).
As described above in Example 2, HT1080 fibrosarcoma cells stably expressing the XBP-luciferase reporter were plated in a 384 well microplate (4000 cells/well). After 24 hours, cells were treated with a mixture of tunicamycin (4 μg/ml) and thapsigargin (0.4 μM), followed by the addition of one compound per well (10 μM). We screened a total of 66,000 diverse molecules obtained from Specs, Chembridge and ChemRX. Twenty-four hours post-induction, BriteGlo luciferase substrate (10 μl) was added to each well and the signal intensity determined in a plate reader (0.2 s read per well). […] We retested 431 compounds from the initial screen, and selected 58 compounds for additional analysis, including calculation of IC50 values and inhibition of a CMV-luciferase reporter.
Compounds of the screening library with structural similarity to compound 9389 (see Table 1) have been identified and in some cases further assayed for inhibitory activity. Compounds listed with “IC50” values were assayed secondarily after initially being identified in the high throughput screen. Each value represents a separate calculation of reporter inhibition based upon the high throughput robotic screening platform. The actual IC50 values are calculated and represent an estimate of the potency of each compound. This assay is not considered to be accurate below a concentration of 10 nM. Compounds classified with “mild” activity inhibited the XBP1-luciferase reporter by 10-30%. Compounds classified with “moderate” activity inhibited the XBP1-luciferase reporter by 30-75%. Compounds classified with “potent” activity inhibited the XBP1-luciferase reporter by 75-100%. Compounds classified with “undetected” activity inhibited the XBP1-luciferase reporter by less than 10% under the defined conditions.

XBP-luciferase reporter = XBP-luciferase reporter assay under Tm or hypoxia, HT1080 cells; type: cell-based, human
Protocol: HT1080 cells stably expressing the XBP-luciferase construct were grown in 60 mm dishes to 60-70% confluency. Following hypoxia treatment, cells were washed twice with PBS, lysed in 400 μl 1× reporter lysis buffer (RLB) (Promega, Madison Wis.) for 30 min at 24° C. Lysates (100 μl) were mixed with an equal volume of luciferase substrate (Promega), and assayed using a luminometer. For 5×-UPRE-luciferase reporter assays, cells were co-transfected with the appropriate reporter plasmid and a control plasmid (pSV40-beta-gal) using Lipofectamine 2000 (Invitrogen, San Diego, Calif.). Twenty-four hours after transfection, fresh media was added, and cells were treated with Tm or shifted to hypoxia. After treatment, cells were lysed in 1×RLB and analyzed for luciferase activity as described above. Beta-galactosidase activity was determined using the beta-galactosidase enzyme assay system (Promega).
A. XBP-luciferase reporter construct. Firefly luciferase was inserted downstream of the IRE1α splice site in human XBP-1 to enable the conditional translation of luciferase under ER stress in an IRE1α-dependent manner. B. Selective inhibition of the XBP-luciferase reporter by irestatin 9389. HT1080 human fibrosarcoma cells stably expressing the XBP-luciferase reporter or CMV-luciferase were cultured in the presence of Tm (4 μg/ml) and Tg (0.4 μM) and irestatin 9389 at the indicated concentrations. After 24 hours, luciferase activity was analyzed in an automated plate reader. For each cell line, values are expressed as the percent inhibition of the median for Tm/Tg-treated wells, corrected for background. C. Structure of irestatin 9389. D. XBP-luciferase reporter assay. HT1080 cells stably expressing the XBP-luciferase reporter were exposed to Tm (4 μg/ml) for 24 hours or hypoxia (0.1% oxygen) for 24 or 48 hours, in the presence of DMSO or irestatin 9389 (1 μM) as indicated. Values are expressed as the fold increases over uninduced levels. E. 5×-UPRE reporter assay. HT1080 cells were co-transfected with 5×-UPRE luciferase and SV40-beta-gal reporter plasmids, followed by exposure to Tm or hypoxia as in D. For each condition, luciferase activity is normalized to beta-galactosidase expression levels as an internal control for transfection efficiency. F. Western immunoblot analysis of XBP-1s. HT1080 cells were left untreated (lane 2) or exposed to Tm (4 μg/ml) for 20 hours in the presence of DMSO vehicle (lane 1) or the indicated irestatins (2 μM; lanes 3-6). […] Cells were harvested, lysed, and analyzed by immunoblotting with antisera specific for HIF-1α (top), XBP-1s (middle) or actin (bottom). […] Total RNA was analyzed by Northern blotting using radiolabeled probes specific for P58^IPK or DER-1. […]

[1] = Potential toxicities of irestatin 9389, increasing i.p. doses; type: in vivo
Protocol: Female 4-6 week-old SCID (B6.CB 17) mice supplied by Stanford University Animal Facility were housed in the same facility (American Association of Laboratory Animal Care-approved) with 12 hour light cycles. Food and water were provided ad libitum. All experiments were approved by the institutional care and use committee. The potential toxicities of irestatin 9389 were examined in SCID mice injected i.p. once daily over 4 consecutive days with increasing doses of irestatin 9389 or vehicle control. […] For xenografts, 2×10^6 HT1080 fibrosarcoma cells were resuspended in 50-75 μl PBS and injected s.c. in the dorsal flanks of host mice. When the implanted tumors reached a mean volume of ˜150 mm^3, mice were randomly assigned into different treatment groups. Mice were dosed by i.p. bolus injection with either vehicle (50% DMSO, 20% cremophor EL, 30% ethanol) or irestatin 9389 (50 mg/kg). Tumors (6-8 per group) were measured every 2-4 days with calipers. Tumor volume was calculated using the formula [(W^2×L) 0.52] where W=width and L=length.

Cc1csc(NC(=O)CSc2nc3c(c(C(F)(F)F)c2C#N)CCC3)n1 [Compound 9389]
% Inh (XBP1-luciferase reporter): 100.3%
hypoxia-induced increase of XBP-luciferase activity (XBP-luciferase reporter; 1 μM, 48 hours of hypoxia (control 95-fold)): robustly inhibited this response
activation of the XBP-luciferase reporter under hypoxia (XBP-luciferase reporter; 1 μM, hypoxia (<0.1% oxygen) for 24 or 48 hours): diminished activation
inhibition at 1 µM (XBP-luciferase reporter; Homo sapiens, HT-1080, irestatin 9389 1 μM, Tm 24 hours, read-out: inhibition of Tm-mediated activation of the XBP-luciferase reporter): > 90%
toxicity ([1]; dosing regimen of 50-60 mg/kg i.p.): without apparent toxicity
dosing regimen of 50-60 mg/kg as share of the LD50 value ([1]; female, SCID (B6.CB 17), mouse, in vivo, 4 days): 75%
